From ChEMBL document CHEMBL4619756, “Design, synthesis and biological evaluation of N-hydroxy-aminobenzyloxyarylamide analogues as novel selective κ opioid receptor antagonists” (Bioorg Med Chem Lett, 2020) come the findings set out here.

Assay type in all cases: cell-based
The target in test [1] is T1, Delta-type opioid receptor (Homo sapiens, UniProt P41143). Description: Displacement of [3H]-DPDPE from human delta opiod receptor expressed in human HEK293 cells at 1 uM incubated for 60 mins by liquid scintillation counting method relative to control.
The target of test [2] is T2, Kappa-type opioid receptor (Homo sapiens, UniProt P41145). Description: Displacement of [3H]-U69593 from human kappa opiod receptor expressed in CHO cells at 1 uM incubated for 60 mins by liquid scintillation counting method relative to control.
Test [3] addresses T1, Delta-type opioid receptor. Description: Displacement of [3H]-DPDPE from human delta opiod receptor expressed in human HEK293 cells at 10 uM incubated for 60 mins by liquid scintillation counting method relative to control.
For test [4], the target named is T3, Mu-type opioid receptor (Homo sapiens, UniProt P35372). The experiment in a line: Displacement of [3H]-DAMGO from human mu opiod receptor expressed in CHO cells at 1 uM incubated for 60 mins by liquid scintillation counting method relative to control. (Loss of bound radioactivity is the signal in a displacement assay; it reports binding, not function.)
Test [5] deals with T2, Kappa-type opioid receptor. The experiment in a line: Displacement of [3H]-U69593 from human kappa opiod receptor expressed in CHO cells at 10 uM incubated for 60 mins by liquid scintillation counting method relative to control.
The target in test [6] is T3, Mu-type opioid receptor. Description: Displacement of [3H]-DAMGO from human mu opiod receptor expressed in CHO cells at 10 uM incubated for 60 mins by liquid scintillation counting method relative to control.
The species named for test [7] is Homo sapiens. The experiment in a line: Selectivity index, ratio of Ki for human delta opiod receptor expressed […] for human kappa opiod receptor expressed in CHO cells.
In test [8] the target is T3, Mu-type opioid receptor. The experiment in a line: Displacement of [3H]-DAMGO from human mu opiod receptor expressed in CHO cells incubated for 60 mins by liquid scintillation counting method.
For test [9], the species on record is Homo sapiens. The experiment in a line: Selectivity index, ratio of Ki for human mu opiod receptor expressed in CHO cells to Ki for human kappa opiod receptor expressed in CHO cells.
The target in test [10] is T1, Delta-type opioid receptor. The experiment in a line: Displacement of [3H]-DPDPE from human delta opiod receptor expressed in human HEK293 cells incubated for 60 mins by liquid scintillation counting method.
The target of test [11] is T2, Kappa-type opioid receptor. The experiment in a line: Displacement of [3H]-U69593 from human kappa opiod receptor expressed in CHO cells incubated for 60 mins by liquid scintillation counting method.

As a reminder, the inhibition is the relative decrease from the control value, in per cent. The Ki is a dissociation constant, usually derived from enzyme kinetics or from competition with a known ligand. A lower Ki goes with tighter binding.

T1 sequence (P41143 whole entry): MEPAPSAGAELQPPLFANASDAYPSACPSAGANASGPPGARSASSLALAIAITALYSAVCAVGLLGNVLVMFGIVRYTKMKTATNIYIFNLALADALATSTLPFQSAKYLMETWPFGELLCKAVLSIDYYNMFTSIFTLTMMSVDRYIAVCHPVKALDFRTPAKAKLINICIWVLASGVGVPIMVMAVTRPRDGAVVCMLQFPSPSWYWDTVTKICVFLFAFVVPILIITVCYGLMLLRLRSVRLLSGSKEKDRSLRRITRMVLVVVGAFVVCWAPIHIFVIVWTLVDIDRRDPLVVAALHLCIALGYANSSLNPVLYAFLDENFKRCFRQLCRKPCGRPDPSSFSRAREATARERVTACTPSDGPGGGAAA
T3 sequence (P35372 whole entry): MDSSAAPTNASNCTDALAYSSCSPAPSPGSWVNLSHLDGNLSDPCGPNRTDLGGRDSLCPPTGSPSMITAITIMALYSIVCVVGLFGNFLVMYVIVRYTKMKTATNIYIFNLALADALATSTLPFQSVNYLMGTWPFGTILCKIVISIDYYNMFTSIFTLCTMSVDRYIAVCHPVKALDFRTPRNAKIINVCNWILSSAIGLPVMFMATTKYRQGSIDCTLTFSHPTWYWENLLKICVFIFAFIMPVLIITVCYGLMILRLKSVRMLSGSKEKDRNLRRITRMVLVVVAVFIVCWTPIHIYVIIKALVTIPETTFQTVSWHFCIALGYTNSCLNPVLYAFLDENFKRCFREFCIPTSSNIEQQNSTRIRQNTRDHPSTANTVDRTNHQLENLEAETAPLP
T2 sequence (P41145 whole entry): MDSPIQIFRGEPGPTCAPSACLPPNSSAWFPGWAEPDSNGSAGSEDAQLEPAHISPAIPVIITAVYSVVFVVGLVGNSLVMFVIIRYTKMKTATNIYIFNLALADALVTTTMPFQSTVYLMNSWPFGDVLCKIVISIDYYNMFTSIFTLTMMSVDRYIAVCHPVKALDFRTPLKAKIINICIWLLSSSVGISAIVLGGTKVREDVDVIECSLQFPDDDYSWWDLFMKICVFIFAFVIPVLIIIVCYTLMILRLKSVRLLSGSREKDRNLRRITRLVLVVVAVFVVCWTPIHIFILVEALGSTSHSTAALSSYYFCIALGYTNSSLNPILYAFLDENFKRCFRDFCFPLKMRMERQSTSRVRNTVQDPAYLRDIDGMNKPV

Take `O=c1[nH]oc2c(Cl)c(Oc3ccc(CN4CCCC4c4cccc(Cl)c4)cc3)ccc12` (stereo not given): the inhibition in [1] turned out to be 0%; in test [2], 0%; in [3] it was 44.9%; in test [4] it was 19.2%; in [5] it was 45.4%; in test [6], 32.5%.
Consider `COc1ccc(C2CCCN2Cc2ccc(Oc3ccc4c(=O)[nH]oc4c3F)cc2)cc1` (stereo not given), for which the inhibition came to 23.7% in [1]; 0% in test [2]; 49.7% in test [3]; 19.2% in test [4]; 19.1% in [5]; 41% in test [6].
As for `O=c1[nH]oc2c(Cl)c(Oc3ccc(CN4CCCC4c4cccc(F)c4)cc3)ccc12` (stereo not given), the inhibition in test [1] was 8.5%; in test [2], 0%; in test [3] it was 37.9%; in test [4] it was 0%; in [5], 16.2%; in [6], 0%.
Regarding `COc1cccc(C2CCCN2Cc2ccc(Oc3ccc(C(=O)NO)cc3F)cc2)c1` (stereo not given), the inhibition in test [2] amounted to 42.5%; in test [4] it was 22.6%; in test [5] it was 80.4%; in test [6], 64.4%.
With `O=C(NO)c1ccc(Oc2ccc(CN3CCCC3c3ccccc3)cc2)cc1` (stereo not given), the inhibition in test [1] worked out at 0%; in test [2], 51.6%; in test [3], 13.8%; in test [4], 21.9%; in test [5] it was 85.3%; in test [6] it was 45.9%.
For `Cc1cc(C)cc(C2CCCN2Cc2ccc(Oc3ccc4c(=O)[nH]oc4c3F)c(F)c2)c1` (stereo not given), the inhibition in test [1] amounted to 17.2%; in [2] it was 26.7%; in [3], 49.3%; in [4] it was 9.4%; in test [5], 56.9%; in test [6], 37.3%.
As to `Cc1cc(C)cc(C2CCCN2Cc2ccc(Oc3ccc4c(=O)[nH]oc4c3)cc2)c1` (stereo not given), the values for the Ratio Ki in test [7] and in test [9] were 3.5 and 1, respectively. In addition, the inhibition was determined as 33.9% in [1]; 70.6% in [2]; 54.8% in [3]; 49.4% in test [4]; 91.6% in [5]; 74% in [6]. Also, the figures for the inhibition constant Ki in [8], in test [10] and in [11] were 1480 nM, 5.01 µM and 1410 nM, respectively.
For `O=C(NO)c1ccc(Oc2ccc(CN3CCCC3c3ccc(Cl)cc3)cc2)c(F)c1` (stereo not given), the inhibition in test [1] was determined as 25.6%; in test [2] it was 46.1%; in test [3], 34.4%; in test [4], 0%; in test [5], 74.3%; in test [6] it was 25.8%.
Consider `O=c1[nH]oc2c(Cl)c(Oc3ccc(CN4CCCC4c4ccc(Cl)cc4)cc3)ccc12` (stereo not given), for which the inhibition in [1] turned out to be 23.9%; in test [2], 0%; in test [3], 52.2%; in test [4] it was 21.7%; in test [5], 0%; in test [6], 41.1%.
`Cc1cc(C)cc(C2CCCN2Cc2ccc(Oc3ccc4c(=O)[nH]oc4c3)c(F)c2)c1` (stereo not given): the inhibition came out at 0% in test [1]; 37.2% in test [2]; 10.7% in [3]; 0% in [4]; 85.2% in test [5]; 9.5% in test [6].
For `Cc1cc(C)cc(C2CCCN2Cc2ccc(Oc3ccc4c(=O)[nH]oc4c3)c(Cl)c2)c1` (stereo not given), the inhibition in [1] amounted to 0%; in [2] it was 23.8%; in test [3] it was 16.9%; in test [4], 0%; in test [5] it was 69.8%; in test [6], 9.8%.
For `O=c1[nH]oc2c(F)c(Oc3ccc(CN4CCCC4c4cccc(F)c4)cc3)ccc12` (stereo not given), the inhibition in test [1] turned out to be 20.7%; in test [2], 0%; in test [3], 52.5%; in test [4], 0%; in test [5], 24.8%; in test [6] it was 0%.
For the compound `COc1ccc(C2CCCN2Cc2ccc(Oc3ccc(C(=O)NO)cc3F)cc2)cc1` (stereo not given), the inhibition was 6.2% in test [1]; 34.9% in test [2]; 15.8% in test [3]; 11% in test [4]; 77.4% in [5]; 43.1% in test [6].
On to `Cc1cc(C)cc(C2CCCN2Cc2ccc(Oc3ccc(C(=O)NO)cc3)cc2)c1` (stereo not given), for which the inhibition worked out at 0% in test [1]; 39.5% in test [2]; 6.5% in [3]; 10.7% in test [4]; 84.7% in test [5]; 36% in [6].
`COc1ccc(C2CCCN2Cc2ccc(Oc3ccc4c(=O)[nH]oc4c3Cl)cc2)cc1` (stereo not given): the inhibition in test [1] was 18%; in test [2], 18.8%; in [3], 39.3%; in [4] it was 17.7%; in test [5], 39.9%; in test [6], 32.2%.
As for `COc1ccc(C2CCCN2Cc2ccc(Oc3ccc4c(=O)[nH]oc4c3)cc2)cc1` (stereo not given), the inhibition was found to be 33.3% in [1]; 55.7% in [2]; 40.7% in test [3]; 42.2% in test [4]; 66.9% in test [5]; 50.6% in test [6].
As to `COc1cccc(C2CCCN2Cc2ccc(Oc3ccc4c(=O)[nH]oc4c3Cl)cc2)c1` (stereo not given), the inhibition was 19.7% in test [1]; 0% in test [2]; 60.6% in test [3]; 0% in [4]; 0% in test [5]; 0% in [6].
As for `Cc1cc(C)cc(C2CCCN2Cc2ccc(Oc3ccc4c(=O)[nH]oc4c3Cl)cc2)c1` (stereo not given), the inhibition in test [1] was 0%; in test [2], 0%; in test [3] it was 22.3%; in test [4], 0%; in test [5], 11.6%; in [6] it was 0%.
In the case of `O=c1[nH]oc2c(F)c(Oc3ccc(CN4CCCC4c4cccc(Cl)c4)cc3)ccc12` (stereo not given), the inhibition is 0% in test [1]; 20% in test [2]; 38.2% in test [3]; 0% in test [4]; 57.2% in [5]; 0% in test [6].
`O=c1[nH]oc2cc(Oc3ccc(CN4CCCC4c4ccc(Cl)cc4)cc3)ccc12` (stereo not given): the inhibition in [1] was determined as 15.7%; in [2], 57.6%; in test [3] it was 35.9%; in [4], 47%; in test [5] it was 83.5%; in test [6], 54.5%.
Take `O=C(NO)c1ccc(Oc2ccc(CN3CCCC3c3cccc(Cl)c3)cc2)c(F)c1` (stereo not given): the inhibition in test [1] was 0%; in [2], 30.9%; in test [3], 26.4%; in [4], 16.5%; in test [5] it was 54.7%; in test [6], 57.3%.
Take `O=c1[nH]oc2c(F)c(Oc3ccc(CN4CCCC4c4ccc(Cl)cc4)cc3)ccc12` (stereo not given): the inhibition is 0% in test [1]; 0% in test [2]; 9.6% in [3]; 22.5% in test [4]; 39.2% in [5]; 35.8% in [6].
In the case of `COc1cccc(C2CCCN2Cc2ccc(Oc3ccc(C(=O)NO)cc3)cc2)c1` (stereo not given), the inhibition in [1] was found to be 0%; in test [2] it was 33.8%; in [3], 7.1%; in [4] it was 13.5%; in test [5], 84.3%; in test [6], 31.6%.
Take `Cc1cc(C)cc(C2CCCN2Cc2ccc(Oc3ccc4c(=O)[nH]oc4c3F)c(Cl)c2)c1` (stereo not given): the inhibition is 18% in [1]; 20.1% in test [2]; 32.9% in test [3]; 21.4% in test [4]; 47.4% in [5]; 45.7% in test [6].
For the compound `Cc1cc(C)cc(C2CCCN2Cc2ccc(Oc3ccc4c(=O)[nH]oc4c3F)cc2)c1` (stereo not given), the inhibition worked out at 0% in test [1]; 0% in test [2]; 33.3% in [3]; 0% in [4]; 36.4% in test [5]; 21.1% in test [6].
Turning to `COc1cccc(C2CCCN2Cc2ccc(Oc3ccc4c(=O)[nH]oc4c3F)cc2)c1` (stereo not given), the inhibition in test [1] was 0%; in test [2], 9.7%; in test [3], 28.4%; in [4], 0%; in [5], 29%; in [6], 6.2%.
For `COc1cc(CN2CCCC2c2cc(C)cc(C)c2)ccc1Oc1ccc2c(=O)[nH]oc2c1` (stereo not given), the inhibition in test [1] is 11.6%; in test [2], 38.4%; in test [3], 49.1%; in [4], 14.3%; in [5], 73.2%; in test [6] it was 59.2%.
